Patent US20100035996A1, “GLUCOSE METABOLISM STIMULATING AGENT” (Shionogi & Co Ltd, priority 2006, published 2010)

Tests used:
Format in all cases: in vivo
male C57BL/6J-ob/ob mice [1] = assay: Glucose tolerance test in obesity model mice, administration for 4 weeks; conditions: for AUC of plasma glucose levels in glucose tolerance test: oral glucose 2 g/kg, 0-120 min, control 29863
Procedure: (§1) The following Examples 1 to 3 were carried out in an obesity model mouse, male C57BL/6J-ob/ob mice (12-17 week old, 40-60 g) to study the effect of Compound (a) on glucose metabolism in mice.
(§2) Hydroxypropylmethyl cellulose solution (0.5% w/v, Shin-Etsu Chemical Co., Ltd) or Compound (a) or (b) suspended in the solution were orally administered at 25, 50 or 100 mg/kg twice a day (8:00-10:00, 16:30-18:00) for 4 weeks. Food was removed in the morning (8:00-9:00) of the last day of administration. Mice were kept under fasting until the end of glucose tolerance test. In this period, the mice were allowed free access to water. The next day, glucose tolerance test was carried out in the afternoon (13:00-16:00). Blood was collected from tail veins just before and at 15, 30, 60 and 120 minutes after oral administration of glucose (2 g/kg) to examine plasma glucose levels. AUC (area under the curve) was calculated by the trapezoidal method from the graphs made with obtained values (FIG. 1). AUCs in mice treated with Compound (a) at 25 mg/kg, 50 mg/kg and 100 mg/kg were 25610 mg·min/dL, 20315 mg·min/dL and 15848 mg·min/dL, respectively. AUC in control mice (dosed with 0.5% hydroxypropylmethyl cellulose solution) was 29863 mg·min/dL.

male C57BL/6J-ob/ob mice [2] = assay: Body weight change during the 4-week dosing period; conditions: 25, 50 or 100 mg/kg orally twice a day for 4 weeks (FIG. 2)
Procedure: as §1, §2

male C57BL/6J-ob/ob mice [3] = assay: Glucose tolerance test in obesity model mice, short-term administration; conditions: 100 mg/kg oral gavage
Procedure: as §1
Compound (a) was administered to mice for short term and then glucose tolerance test was performed. In the morning (8:00-10:00) of the previous day of the test, hydroxypropylmethyl cellulose solution (0.5% w/v, Shin-Etsu Chemical Co., Ltd) or Compound (a) at 100 mg/kg suspended in the solution was administered by oral gavage. Food was removed just after the administration. Mice were kept under fasting until the end of glucose tolerance test. In this period, the mice were allowed free access to water. The oral administration was also performed in the evening of the previous day of the test (17:00-18:00) and in the morning of the day of the test (8:00-9:00). Glucose tolerance test was carried out in the afternoon (13:00-16:00), and AUC was calculated as described in Example 1 (FIG. 3).

male C57BL/6J-ob/ob mice [4] = assay: Glucose tolerance test in obesity model mice, administration for 1 week; conditions: 100 mg/kg orally twice a day for a week
Procedure: as §1
Hydroxypropylmethyl cellulose solution (0.5% w/v, Shin-Etsu Chemical Co., Ltd) or Compound (b) suspended in the solution were orally administered at 100 mg/kg twice a day (8:00-10:00, 16:30-18:00) for a week. Food was removed in the morning (8:00-9:00) of the last day of administration. Mice were kept under fasting until the end of glucose tolerance test. In this period, the mice were allowed free access to water. The next day, glucose tolerance test was carried out in the afternoon (13:00-16:00) and then AUC was calculated as described in Example 1 (FIG. 4).

[5] = 100 mg/kg orally twice a day for 4 weeks

| SMILES | AUC of plasma glucose levels in glucose tolerance test (male C57BL/6J-ob/ob mice [1]; 25 mg/kg orally twice a day for 4 weeks) [mg·min/dL] | AUC of plasma glucose levels in glucose tolerance test (male C57BL/6J-ob/ob mice [1]; 50 mg/kg orally twice a day for 4 weeks) [mg·min/dL] | AUC compared to control mice (male C57BL/6J-ob/ob mice [1]; [5]) | AUC of plasma glucose levels in glucose tolerance test (male C57BL/6J-ob/ob mice [1]; [5]) [mg·min/dL] | AUC change across doses (male C57BL/6J-ob/ob mice [1]; 25, 50, 100 mg/kg orally twice a day for 4 weeks) | Change in body weight during the dosing period (male C57BL/6J-ob/ob mice [2]) | AUC of plasma glucose levels in glucose tolerance test (male C57BL/6J-ob/ob mice [3]; three doses (morning and evening of previous day, morning of test day), control 15033) [mg·min/dL] | AUC compared to control mice (male C57BL/6J-ob/ob mice [3]; three doses, short term) | AUC compared to control mice (male C57BL/6J-ob/ob mice [4]) | AUC of plasma glucose levels in glucose tolerance test (male C57BL/6J-ob/ob mice [4]; control 22532) [mg·min/dL] |
| --- | --- | --- | --- | --- | --- | --- | --- | --- | --- | --- |
| CC(C)(C)S(=O)(=O)N[C@H]1CC[C@H](C(=O)Nc2ccc(C(F)(F)F)cn2)CC1 [Compound (a)] | 25610 | 20315 | statistically significant decrease | 15848 | decreased with dose-dependent manner | no statistically significant change | 22423 | statistically significant decrease |  |  |
| CCS(=O)(=O)N[C@H]1CC[C@H](C(=O)Nc2ccc(N3C[C@@H](C)O[C@@H](C)C3)cc2)CC1 [Compound (b)] |  |  |  |  |  |  |  |  | statistically significant decrease | 15546 |
